Data reported in PubChem BioAssay (NCI).
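Interpolation was linear, between the two tested concentrations surrounding the appropriate level; five concentrations were tested over 48 hours in 96-well plates. GI50: concentration for 50% inhibition of growth. TGI is the concentration that stops growth completely.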

Tests used:
Experiment in all cases: NCI-60 cell line screen, 48 h
[1] = system: UACC-257 melanoma
[2] = system: A498 renal
[3] = system: OVCAR-3 ovarian
[4] = system: NCI-H226 lung
[5] = system: DU-145 prostate
[6] = system: MCF7 breast
[7] = system: LOX IMVI melanoma
[8] = system: RPMI-8226 leukemia
[9] = system: UO-31 renal
[10] = system: SK-MEL-28 melanoma
[11] = system: CAKI-1 renal
[12] = system: NCI-H522 lung
[13] = system: K-562 leukemia
[14] = system: MDA-MB-435
[15] = system: SNB-19 CNS
[16] = system: T-47D breast
[17] = system: HCT-15 colon
[18] = system: CCRF-CEM leukemia
[19] = system: HL-60(TB) leukemia
[20] = system: PC-3 prostate
[21] = system: SK-MEL-5 melanoma
[22] = system: HS 578T breast
[23] = system: M14 melanoma
[24] = system: A549 NSCLC
[25] = system: SR leukemia
[26] = system: OVCAR-8 ovarian
[27] = system: SN12C renal
[28] = system: MOLT-4 leukemia
[29] = system: NCI/ADR-RES ovarian
[30] = system: MDA-MB-231 breast
[31] = system: TK-10 renal
[32] = system: HOP-92 NSCLC
[33] = system: KM12 colon
[34] = system: HCC-2998 colon
[35] = system: EKVX NSCLC
[36] = system: NCI-H460 lung
[37] = system: HT29 colon
[38] = system: SNB-75 CNS
[39] = system: IGROV1 ovarian
[40] = system: SF-268 CNS
[41] = system: HCT-116 colon
[42] = system: OVCAR-5 ovarian
[43] = system: UACC-62 melanoma
[44] = system: SK-OV-3 ovarian
[45] = system: MALME-3M melanoma
[46] = system: SW-620 colon
[47] = system: ACHN renal
[48] = system: COLO 205 colon
[49] = system: BT-549 breast
[50] = system: SK-MEL-2 melanoma
[51] = system: U251 CNS
[52] = system: 786-0 renal
[53] = system: SF-295 CNS
[54] = system: HOP-62 NSCLC
[55] = system: SF-539 CNS
[56] = system: RXF 393 renal
[57] = system: OVCAR-4 ovarian

## COc1cc(OC)c(S(N)(=O)=O)cc1C(=O)/C=C/c1ccc(Cl)cc1
[1]
  GI50: 5.46 µM
  TGI: 22.7 µM
[2]
  GI50: 18.6 µM
  TGI: 34 µM
[3]
  GI50: 3.51 µM
  TGI: 17.6 µM
[4]
  GI50: 2.56 µM
  TGI: 8.86 µM
[5]
  GI50: 3.44 µM
  TGI: 15.4 µM
[6]
  GI50: 1.08 µM
  TGI: 4.11 µM
[7]
  GI50: 0.733 µM
  TGI: 2.51 µM
[8]
  GI50: 1.86 µM
  TGI: 6.33 µM
[9]
  GI50: 2.36 µM
  TGI: 10.3 µM
[10]
  GI50: 3.03 µM
  TGI: 9.87 µM
[11]
  GI50: 1.89 µM
  TGI: 10.5 µM
[12]
  GI50: 1.63 µM
  TGI: 3.42 µM
[13]
  GI50: 1.85 µM
  TGI: 13.6 µM
[14]
  GI50: 2.08 µM
  TGI: 6.54 µM
[15]
  GI50: 3.17 µM
  TGI: 16.7 µM
[16]
  GI50: 2.37 µM
  TGI: 12.4 µM
[17]
  GI50: 1.46 µM
  TGI: 10.2 µM
[18]
  GI50: 1.52 µM
  TGI: > 100 µM
[19]
  GI50: 1.91 µM
  TGI: 8.88 µM
[20]
  GI50: 1.6 µM
  TGI: 4.25 µM
[21]
  GI50: 4.93 µM
  TGI: 16.9 µM
[22]
  GI50: 4.22 µM
  TGI: > 100 µM
[23]
  GI50: 1.47 µM
  TGI: 3.14 µM
[24]
  GI50: 3.17 µM
  TGI: 14.2 µM
[25]
  GI50: 2.11 µM
  TGI: 7.84 µM
[26]
  GI50: 3.01 µM
  TGI: 14.6 µM
[27]
  GI50: 2.48 µM
  TGI: 12.6 µM
[28]
  GI50: 2.82 µM
  TGI: 13 µM
[29]
  GI50: 3.97 µM
  TGI: > 100 µM
[30]
  GI50: 3.92 µM
  TGI: 18.9 µM
[31]
  GI50: 2.91 µM
  TGI: 8.89 µM
[32]
  GI50: 1.46 µM
  TGI: 4.92 µM
[33]
  GI50: 1.82 µM
  TGI: 7.06 µM
[34]
  GI50: 2.41 µM
  TGI: 6.12 µM
[35]
  GI50: 3.88 µM
  TGI: 22.3 µM
[36]
  GI50: 2.84 µM
  TGI: 12 µM
[37]
  GI50: 2.18 µM
  TGI: 4.66 µM
[38]
  GI50: 1.5 µM
  TGI: 3.23 µM
[39]
  GI50: 2.95 µM
  TGI: 12.3 µM
[40]
  GI50: 3.75 µM
  TGI: 26.1 µM
[41]
  GI50: 0.748 µM
  TGI: 2.13 µM
[42]
  GI50: 3.18 µM
  TGI: 11.5 µM
[43]
  GI50: 2.67 µM
  TGI: 10.6 µM
[44]
  GI50: 2.8 µM
  TGI: 8.22 µM
[45]
  GI50: 2.79 µM
  TGI: 8.51 µM
[46]
  GI50: 2.49 µM
  TGI: 11.7 µM
[47]
  GI50: 3.16 µM
  TGI: 11.1 µM
[48]
  GI50: 1.66 µM
  TGI: 3.13 µM
[49]
  GI50: 1.25 µM
  TGI: 2.73 µM
[50]
  GI50: 11.5 µM
  TGI: 25.6 µM
[51]
  GI50: 2.18 µM
  TGI: 6.48 µM
[52]
  GI50: 1.9 µM
  TGI: 4.32 µM
[53]
  GI50: 3.88 µM
  TGI: 12.5 µM
[54]
  GI50: 2.58 µM
  TGI: 6.59 µM
[55]
  GI50: 2.14 µM
  TGI: 4.82 µM
[56]
  GI50: 1.62 µM
  TGI: 3.34 µM
[57]
  GI50: 3.54 µM
  TGI: 27 µM
